According to patent US20240208953A1, “"Cyclopenta[c]pyrrol Negative Allosteric Modulators of NR2B"” (Novartis AG, priority 2021, published 2024):

Key:
P-glycoprotein (P-gp) = P-glycoprotein (P-gp) (Homo sapiens (Human), UniProt P08183); assay: MDCK-MDR1 permeability / efflux assay; format: in vitro ADME; details: dog, MDCK-MDR1, pH 7.4, efflux ratio, read-out: MDCK-MDR1 ER
Outline: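 MDCK-MDR1 monolayers grown 4 days on Transwells; 10 μM compound in HBSS/10 mM HEPES pH 7.4 with 0.02% BSA, run A→B and B→A for 120 min at 37 °C without shaking. Donor and receiver concentrations by LC-MS/MS; Papp and recovery calculated, efflux ratio from B→A vs A→B.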

NR2B = NR2B (Rattus norvegicus (Rat), UniProt Q00960); assay: NR2B rat cortical neuron calcium influx assay; format: cell-based; details: rat cortical neurons, glutamate and glycine stimulated calcium influx
Outline: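 Primary cortical neurons from E18 Sprague Dawley rat embryos, cultured 2 days, were loaded with Calcium 6 dye in 1.8 mM Ca-HBSS and preincubated with compound 2 h at 37° C. Glutamate plus glycine was added and fluorescence read for 2 min as peak/baseline ratio; duplicate dose-response curves gave IC50 (μM) and maximal inhibition.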

hERG = hERG (Homo sapiens (Human), UniProt Q12809); assay: hERG Qpatch assay; format: cell-based; details: Table 2, hERG expressing CHO-K1 cells
Description: Example 3. hERG Qpatch Assay Protocol
This assay was performed by the method described in Skepper et al., J. Med. Chem. 2020, 63, 7773-7816:
hERG expressing cell lines were produced in-house at Novartis using CHO-K1 T-Rex inducible plasmid system (Invitrogen) as described previously (Cao et al., Assay Drug Dev. Technol. 2010, 8, 766-780). Cell lines were maintained in Ham's F12 nutrient mixture containing 10% FBS, blasticidin ([…]; InvivoGen), hygromycin B ([…]; InvivoGen), Zeocin ([…], Invitrogen), and neomycin ([…], Invitrogen) using SelecT automated cell culture system (TAP Biosystems, Cambridge, U.K.). hERG and hCav1.2 channels expression was induced with tetracycline (0.25-1 μg/mL, Invitrogen) at least 24 h prior to the experiment.
hERG currents were recorded using the Qpatch automated patch clamp systems (Sophion Bioscience Inc., North Brunswick, NJ) in the whole (single) cell configuration. hERG expressing CHO-K1 cells were harvested with Detachin (Genlantis) and stored in the modified serum-free SFM-2 media (Life Technologies) at room temperature. The extracellular solution contained (in mM) NaCl (145), KCl (4), MgCl2 (1), CaCl2 (2), and HEPES (10), pH 7.4, with NaOH. The intracellular solution contained KCl (135), MgCl2 (1.75), CaCl2 (5.4), EGTA (10), K2-ATP (4), and HEPES (10), pH 7.2, with KOH. After whole cell configuration was achieved, the cell was held at −90 mV, and a 0.1 s pulse to −50 mV was delivered to measure the leaking current, which was subtracted from the tail current online. Then the cell was depolarized to +20 mV for 4 s (prepulse), followed by a 4 s test pulse to −50 mV to reveal the hERG tail current. To monitor changes in the current amplitude, this voltage protocol was repeatedly applied every 20 s. Test compounds were first diluted in DMSO for six dose-response experiments and then dissolved in the extracellular solution using Freedom EVO liquid handling robotic system (Tecan, Männedorf, Switzerland). The final DMSO concentration in samples was 0.3% v/v. Amitriptyline (Sigma) was tested as a positive control. Data were analyzed using in-house developed MatLab-based program (MathWorks, Natick, MA

NR2B, sequence (Q00960 27-1482, other chains not shown): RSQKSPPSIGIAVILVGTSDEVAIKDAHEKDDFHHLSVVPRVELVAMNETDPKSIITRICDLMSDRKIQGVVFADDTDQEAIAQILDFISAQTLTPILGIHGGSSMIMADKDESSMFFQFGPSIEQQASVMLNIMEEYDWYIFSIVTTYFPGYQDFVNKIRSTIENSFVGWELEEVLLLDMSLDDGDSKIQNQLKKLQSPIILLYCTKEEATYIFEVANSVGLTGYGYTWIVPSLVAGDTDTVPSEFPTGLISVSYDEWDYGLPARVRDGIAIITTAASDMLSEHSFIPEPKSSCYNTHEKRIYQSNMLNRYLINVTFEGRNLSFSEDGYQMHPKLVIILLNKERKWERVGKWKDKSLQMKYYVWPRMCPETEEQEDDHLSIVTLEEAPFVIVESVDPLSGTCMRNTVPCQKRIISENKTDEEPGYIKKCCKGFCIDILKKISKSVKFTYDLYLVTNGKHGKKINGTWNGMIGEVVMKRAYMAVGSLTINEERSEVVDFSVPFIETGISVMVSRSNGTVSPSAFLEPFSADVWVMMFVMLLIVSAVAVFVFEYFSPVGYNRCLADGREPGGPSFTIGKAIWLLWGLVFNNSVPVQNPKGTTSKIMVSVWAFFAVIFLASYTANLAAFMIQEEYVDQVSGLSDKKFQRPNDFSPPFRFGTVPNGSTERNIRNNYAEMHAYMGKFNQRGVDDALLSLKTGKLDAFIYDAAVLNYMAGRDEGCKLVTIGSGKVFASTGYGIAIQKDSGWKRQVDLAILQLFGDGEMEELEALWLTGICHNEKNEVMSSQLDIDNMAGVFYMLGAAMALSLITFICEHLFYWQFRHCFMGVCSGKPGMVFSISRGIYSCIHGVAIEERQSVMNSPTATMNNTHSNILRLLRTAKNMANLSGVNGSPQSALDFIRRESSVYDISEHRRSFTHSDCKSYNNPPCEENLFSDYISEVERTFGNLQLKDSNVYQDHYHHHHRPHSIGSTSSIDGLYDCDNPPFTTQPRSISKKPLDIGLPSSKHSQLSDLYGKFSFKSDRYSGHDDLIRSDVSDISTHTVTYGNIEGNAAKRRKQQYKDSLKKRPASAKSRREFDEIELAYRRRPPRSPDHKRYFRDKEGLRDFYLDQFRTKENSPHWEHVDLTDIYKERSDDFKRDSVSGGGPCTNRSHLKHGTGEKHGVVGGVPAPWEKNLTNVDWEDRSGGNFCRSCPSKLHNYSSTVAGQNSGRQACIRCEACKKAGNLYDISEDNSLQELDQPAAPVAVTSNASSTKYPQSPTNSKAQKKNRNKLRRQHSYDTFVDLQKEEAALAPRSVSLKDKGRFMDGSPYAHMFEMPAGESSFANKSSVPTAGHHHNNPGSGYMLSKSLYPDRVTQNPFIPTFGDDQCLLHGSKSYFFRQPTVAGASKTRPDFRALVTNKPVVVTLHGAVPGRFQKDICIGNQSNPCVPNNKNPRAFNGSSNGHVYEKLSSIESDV
P-glycoprotein (P-gp), sequence (P08183 whole entry): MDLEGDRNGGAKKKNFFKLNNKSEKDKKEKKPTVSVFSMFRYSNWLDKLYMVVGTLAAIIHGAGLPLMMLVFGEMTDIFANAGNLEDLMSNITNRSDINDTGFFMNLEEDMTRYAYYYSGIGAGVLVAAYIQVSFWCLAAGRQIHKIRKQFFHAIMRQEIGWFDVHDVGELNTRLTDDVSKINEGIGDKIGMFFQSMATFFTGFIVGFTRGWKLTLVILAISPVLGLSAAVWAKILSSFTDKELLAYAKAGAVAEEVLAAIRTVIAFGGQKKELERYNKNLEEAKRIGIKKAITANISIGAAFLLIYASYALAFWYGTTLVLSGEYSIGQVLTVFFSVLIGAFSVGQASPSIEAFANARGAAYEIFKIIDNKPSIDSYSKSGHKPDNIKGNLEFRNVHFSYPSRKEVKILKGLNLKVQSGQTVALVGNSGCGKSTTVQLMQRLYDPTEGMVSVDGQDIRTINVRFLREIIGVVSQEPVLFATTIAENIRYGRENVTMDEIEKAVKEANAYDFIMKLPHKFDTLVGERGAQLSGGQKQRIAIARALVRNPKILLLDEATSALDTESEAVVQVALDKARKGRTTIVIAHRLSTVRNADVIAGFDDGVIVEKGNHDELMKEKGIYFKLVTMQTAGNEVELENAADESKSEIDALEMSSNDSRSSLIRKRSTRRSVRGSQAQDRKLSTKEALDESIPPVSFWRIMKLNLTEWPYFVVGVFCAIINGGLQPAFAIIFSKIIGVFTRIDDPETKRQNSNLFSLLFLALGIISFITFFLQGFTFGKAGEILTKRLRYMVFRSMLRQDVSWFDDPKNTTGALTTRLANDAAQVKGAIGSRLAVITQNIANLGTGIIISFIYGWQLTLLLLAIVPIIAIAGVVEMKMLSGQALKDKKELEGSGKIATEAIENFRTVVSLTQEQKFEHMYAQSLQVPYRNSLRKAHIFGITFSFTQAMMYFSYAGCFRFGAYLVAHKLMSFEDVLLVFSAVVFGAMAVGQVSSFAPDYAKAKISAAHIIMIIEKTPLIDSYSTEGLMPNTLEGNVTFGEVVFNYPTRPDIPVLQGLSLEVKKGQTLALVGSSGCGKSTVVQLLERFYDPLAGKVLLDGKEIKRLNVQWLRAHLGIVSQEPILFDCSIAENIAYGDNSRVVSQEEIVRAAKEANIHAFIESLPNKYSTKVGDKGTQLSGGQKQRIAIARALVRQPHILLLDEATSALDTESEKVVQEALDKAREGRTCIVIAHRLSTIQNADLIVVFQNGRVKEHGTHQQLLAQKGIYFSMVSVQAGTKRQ
hERG, sequence (Q12809 whole entry): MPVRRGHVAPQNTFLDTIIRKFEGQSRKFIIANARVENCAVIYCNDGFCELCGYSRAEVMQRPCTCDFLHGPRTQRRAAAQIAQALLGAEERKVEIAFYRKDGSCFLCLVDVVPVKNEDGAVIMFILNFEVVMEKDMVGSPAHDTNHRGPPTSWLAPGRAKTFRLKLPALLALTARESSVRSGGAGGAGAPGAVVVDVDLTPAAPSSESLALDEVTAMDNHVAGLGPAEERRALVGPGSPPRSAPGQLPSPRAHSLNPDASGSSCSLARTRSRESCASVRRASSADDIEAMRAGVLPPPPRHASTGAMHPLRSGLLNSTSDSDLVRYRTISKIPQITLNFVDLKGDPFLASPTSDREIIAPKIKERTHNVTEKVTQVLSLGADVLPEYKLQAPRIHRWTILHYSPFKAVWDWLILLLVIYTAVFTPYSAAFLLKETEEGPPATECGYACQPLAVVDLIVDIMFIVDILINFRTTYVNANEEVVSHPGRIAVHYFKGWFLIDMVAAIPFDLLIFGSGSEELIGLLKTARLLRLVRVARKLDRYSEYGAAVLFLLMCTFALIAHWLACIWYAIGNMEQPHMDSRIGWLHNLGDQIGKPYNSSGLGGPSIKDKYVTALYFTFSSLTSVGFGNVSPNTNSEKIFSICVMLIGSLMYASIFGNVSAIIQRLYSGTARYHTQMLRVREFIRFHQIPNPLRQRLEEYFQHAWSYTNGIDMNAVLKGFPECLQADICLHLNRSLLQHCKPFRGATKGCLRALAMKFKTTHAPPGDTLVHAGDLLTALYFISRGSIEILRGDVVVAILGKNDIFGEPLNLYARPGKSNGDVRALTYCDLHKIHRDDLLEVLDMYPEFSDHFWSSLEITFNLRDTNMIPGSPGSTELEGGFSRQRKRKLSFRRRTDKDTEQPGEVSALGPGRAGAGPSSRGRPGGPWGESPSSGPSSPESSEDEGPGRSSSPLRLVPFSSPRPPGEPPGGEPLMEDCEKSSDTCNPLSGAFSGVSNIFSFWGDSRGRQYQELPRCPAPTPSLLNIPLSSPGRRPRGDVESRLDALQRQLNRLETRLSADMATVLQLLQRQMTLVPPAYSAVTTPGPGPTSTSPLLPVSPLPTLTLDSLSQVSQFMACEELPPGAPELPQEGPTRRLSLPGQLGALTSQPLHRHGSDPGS

SMILES	efflux ratio at 120 min, 10 μM (P-glycoprotein (P-gp))	IC50 (NR2B) [nM]	IC50 (hERG) [nM]
O=c1[nH]c2c(F)cc([C@H](O)CN3C[C@H]4C[C@H](Oc5ccccc5)C[C@@]4(O)C3)cc2s1 (single isomer, unassigned) [Example 42B]	0.9	0.04	800
O=C1CCc2cc([C@@H](O)CN3C[C@@H]4C[C@@H](Oc5cccc(F)c5F)C[C@]4(O)C3)ccc2N1 (single isomer, unassigned) [Example 24C]	1.46	0.021	1200
O=C1CCc2cc([C@H](O)CN3C[C@H]4C[C@H](Oc5ccccc5)C[C@@]4(O)C3)ccc2N1 [Example 1B, 6-((S)-1-hydroxy-2-((3aS,5S,6aR)-3a-hydroxy-5-phenoxyhexahydrocyclopenta[c]pyrrol-2(1H)-yl)ethyl)-3,4-dihydroquinolin-2(1H)-one]	2.3	1.6	7600
